Experimental data reported in PubChem BioAssay AID1817 (Sanford-Burnham Center for Chemical Genomics, 2009).
The source made the active and inactive calls.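 The calls were made as follows: active = displacement of at least 50% at 20 µM, with a fluorescence ratio check between 0.3 and a set limit; inactive = the rest.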

Molecular target: E3 ubiquitin-protein ligase SIAH1 (Homo sapiens) (UniProt Q8IUQ4)
Experiment: Siah-1 peptide-binding antagonists, primary screen, biochemical, fluorescence polarization, rhodamine-plectin, uHTS (AID 1817)
Details: Siah-1 / rhodamine-plectin peptide fluorescence polarization

Sequence of E3 ubiquitin-protein ligase SIAH1 (Homo sapiens) (Q8IUQ4 whole entry, looked up): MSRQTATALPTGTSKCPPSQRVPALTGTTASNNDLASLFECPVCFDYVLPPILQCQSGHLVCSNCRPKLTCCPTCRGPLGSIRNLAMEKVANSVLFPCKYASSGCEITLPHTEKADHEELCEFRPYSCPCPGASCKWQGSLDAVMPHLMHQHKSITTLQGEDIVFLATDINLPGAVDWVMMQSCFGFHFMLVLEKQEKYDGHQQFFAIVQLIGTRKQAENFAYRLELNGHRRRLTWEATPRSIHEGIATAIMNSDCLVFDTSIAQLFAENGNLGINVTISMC

SMILES | IC50
C=CCn1c(NS(=O)(=O)c2ccccc2)c(S(=O)(=O)c2ccc(C)cc2)c2nc3ccccc3nc21 | > 200 µM (inactive)
Cc1ccc(C(=O)COc2ccccc2C(=O)Nc2ccccc2)cc1 | > 200 µM (inactive)
Nc1c(C(=O)NCc2ccco2)c2nc3ccccc3nc2n1Cc1ccccc1 | > 200 µM (inactive)
COC(=O)c1ccc2c(c1)C(C)(C)C(/C=C/c1ccccc1O)=[N+]2C | > 200 µM (inactive)
CC1CCN(S(=O)(=O)c2nnc(NC(=O)c3cccc(Cl)c3)s2)CC1 | > 200 µM (inactive)
CCCCN(Cc1cc2cc(OC)ccc2[nH]c1=O)S(=O)(=O)c1ccc(C)cc1 | > 200 µM (inactive)
O=C(CSc1ccc(Br)c2cccc(Cl)c12)Nc1ccc(S(=O)(=O)Nc2nccs2)cc1 | > 200 µM (inactive)
Nc1ccc(S(=O)(=O)Nc2ccc(S(N)(=O)=O)cc2)cc1 | > 200 µM (inactive)
CCC(C)N1C(=O)/C(=C/c2c(NCCCOC(C)C)nc3c(C)cccn3c2=O)SC1=S (centres undefined) | > 200 µM (inactive)
CCN(CC)c1ccc(C=N/C(C#N)=C(\N)C#N)cc1 | > 200 µM (inactive)
CCC(C)[C@H](NC(=O)N1CCn2c1nc1ccccc12)C(=O)NCCc1ccc(OC)c(OC)c1 (some centres undefined) | > 200 µM (inactive)
S=c1[nH]nc(Cc2cccc3ccccc23)n1-c1ccccc1 | > 200 µM (inactive)
Cc1coc2c(C)c3oc(=O)c(CCC(=O)N[C@@H](C)C(=O)N[C@@H](Cc4ccccc4)C(=O)O)c(C)c3cc12 | 16.8 µM
COc1cc(/C=C2/SC(=S)N(Cc3ccccc3)C2=O)cc(Cl)c1O | > 200 µM (inactive)
Cc1c(C(=O)O)sc2nc(CSc3ncc(C(F)(F)F)cc3Cl)[nH]c(=O)c12 | > 200 µM (inactive)
CCc1nnc(NS(=O)(=O)c2ccc(NC(=S)NC(=O)/C=C/c3ccc(C(C)C)cc3)cc2)s1 | 19.2 µM
Cc1cc(C)nc(N=Nc2c(O)n(Cc3ccc(Cl)cc3)c3ccccc23)n1 | > 200 µM (inactive)

SMILES | IC50
O=c1ccc2c(-c3ccccc3)c3ccc(O)cc3oc-2c1 | 11.1 µM
O=C(Nc1ccccc1N1CCCCC1)c1ccc(-c2cccc(Cl)c2)o1 | > 200 µM (inactive)
COc1cccc(CCC(=O)N(C)C2CCCN(Cc3ccccc3F)C2)c1 (centres undefined) | > 200 µM (inactive)
COC(=O)C1C=C2c3cccc4[nH]cc(c34)CC2N(C)C1 (centres undefined) | inactive
CC1CCN(C(=O)C2CCC(C)(C(=O)O)C2(C)C)CC1 (centres undefined) | > 200 µM (inactive)
Cc1ccc(C(=O)NC2CC3CCCC(C2)N3C(=O)NC2CCCCC2)cc1 (centres undefined) | > 200 µM (inactive)
CC(C)(C)c1cc(-c2csc(Nc3ccccc3)[n+]2Cc2ccc(C(=O)O)cc2)cc(C(C)(C)C)c1O | > 200 µM (inactive)
O=C(Cn1cnc2scc(-c3ccccc3)c2c1=O)NCc1ccco1 | > 200 µM (inactive)
N#C/C(=C\c1c(F)cccc1Cl)C(=O)NC1CC1 | > 200 µM (inactive)
CC(=O)Nc1ccc(N=Cc2c(O)c(C(=O)Nc3ccccc3)cc3ccccc23)cc1 | 24.9 µM
O=C(CCN1CCN(Cc2ccccc2)CC1)Nc1cccc(Cl)c1 | > 200 µM (inactive)
Nc1c(C(=O)NCc2ccco2)c2nc3ccccc3nc2n1CCc1ccccc1 | > 200 µM (inactive)
O=S(=O)(Nc1nc2ccccc2nc1Nc1ccc(N2CCOCC2)cc1)c1cc(Cl)ccc1Cl | > 200 µM (inactive)
Cc1ccc(-n2cccn2)c([C@@H]2C[C@H]3CN(C)C(=O)[C@]34CCCN24)c1 | > 200 µM (inactive)
NS(=O)(=O)c1ccc(NC(=O)c2cccc(N3C(=O)c4ccccc4C3=O)c2)cc1 | inactive
COc1cc(/C=C(\C#N)c2nc3ccccc3[nH]2)ccc1OC(=O)c1ccco1 | > 200 µM (inactive)
COC(=O)c1c(C(=O)OC)c2cccc3cc(-c4ccccc4)c4ccc1c4n32 | inactive
